Test system: SK-N-SH human neuroblastoma cells
Experiment: Serum Deprivation/JC-1 Mitochondrial Membrane Potential (MMP) Assay
Assay type: cell-based
Settings: for Emax: percent maximal intensity in JC-1 ratio normalized to peak value for 10 μM dimebolin, read-out: JC-1 max %; for EC50: serum deprivation ~18 hours, JC-1 ratio normalized to peak value for 10 μM dimebolin, single curve fit to mean of n=2-3
Method: SK-N-SH human neuroblastoma cells obtained from American Type Culture Collection (Rockville, Md.) were maintained in the log phase of growth in Minimal Essential Media (MEM), 10% heat inactivated fetal calf serum and 100 units/mL antibiotic-antimycotic (AA). Cells were cultured and maintained in a humidified incubator at 37° C. under 5% CO2 and 95% air. Cells were trypsinized (0.25%) and subcultured every 3 days and used from 15-18 passages. All cell culture supplies were obtained from Invitrogen (Carlsbad, Calif.).
SK-N-SH cells were plated 2-3 days in advance at a concentration of 50,000 cells/well onto collagen coated black-walled 96 well plates (Becton-Dickinson, Bedford, Mass.) in a total volume of 200 μL. On day of experimental treatment, the media containing serum was aspirated from each well and rinsed once with MEM/1% AA without serum. The cells then were incubated overnight in 100 μL of MEM/1% AA (no serum) with and without dimebolin or novel chemical entities overnight for ˜18 hours. The following day, JC-1 dye (5,5′,6,6′-tetrachloro-1,1′,3,3′-tetraethylbenzimidazolcarbocyanide) was diluted 1:10 into MEM media according to the JC-1 Mitochondrial Membrane Potential Assay Kit: (Cayman Chemical Company, Ann Arbor, Mich.) and then 10 μL of the JC-1 dye solution was added to each well. The plates were centrifuged for 5 minutes at 400×g at room temperature followed by 35 minute incubation at 37° C. The plates were washed twice with 200 μL of provided Assay Buffer followed an addition of 100 μL of Assay Buffer to each well. The plates were read with an excitation and emission of 560 nm and 595 nM for red fluorescence and with an excitation and emission of […] and 535 nM for green fluorescence to determine the final JC-1 value taking the red to green fluorescence ratio. This assay is based on change in mitochondrial membrane potential (MMP) using this lipophilic cationic dye, JC-1, by monitoring the changes in the ratio of red to green fluorescence as the MMP depolarizes. This change in MMP reflects the health of the cell with healthy, viable cells have a high JC-1 ratio and high MMP whereas apoptotic, unhealthy cells have a low JC-1 ratio or low MMP.
For the ability of compounds to reverse the stress due to serum deprivation and increase the JC-1 ratio, the percent maximal intensity in JC-1 ratio was normalized to that induced by the peak value for 10 μM dimebolin and plotted against the compound concentration to calculate EC50 values and to control for plate-to-plate variability. Concentration-response data were analyzed using GraphPad Prism (San Diego, Calif.); the EC50 values were derived from a single curve fit to the mean data of n=2-3, in duplicates.
All compounds were dissolved in dimethyl sulfoxide at 10 mM stock solutions and tested at a concentration that the dimethyl sulfoxide levels never exceeded 1%.

SMILES	Emax (Homo sapiens, SK-N-SH, 18 h) [%]	EC50 (Homo sapiens, SK-N-SH, 18 h) [µM]	EC50 [µM]
Cc1ccc(/C=C/c2cccc3c4c([nH]c23)C[C@H]2CC[C@@H]4N2)cn1 (single isomer, unassigned) [Example 25]	173	6.25	5.99
Cc1ccc(/C=C/c2cccc3c4c([nH]c23)C[C@@H]2CC[C@H]4N2C)cn1 (stereo in doubt) [Example 14, (+)-(7S*,10R*)-11-methyl-4-[(E)-2-(6-methylpyridin-3-yl)vinyl]-5,6,7,8,9,10-hexahydro-7,10-epiminocyclohepta[b]indole]	162	4.34	–
Cc1ccc(/C=C/c2cccc3c4c([nH]c23)C[C@H]2CC[C@@H]4N2C)cn1 (stereo in doubt) [Example 15, (−)-(7R*,10S*)-11-methyl-4-[(E)-2-(6-methylpyridin-3-yl)vinyl]-5,6,7,8,9,10-hexahydro-7,10-epiminocyclohepta[b]indole]	160	3.04	–
CC(=O)N1C2CCC1c1c([nH]c3c(-c4ccc(Cl)nc4)cccc13)C2 (stereo not drawn) [Example 29, 1-[4-(6-chloropyridin-3-yl)-5,6,7,8,9,10-hexahydro-7,10-epiminocyclohepta[b]indol-11-yl]ethanone]	114	5.31	–
c1cc(-c2ccncc2)c2[nH]c3c(c2c1)C1CCC(C3)N1 (stereo not drawn) [Example 31, 4-(pyridin-4-yl)-5,6,7,8,9,10-hexahydro-7,10-epiminocyclohepta[b]indole]	22.3	> 31.6	–
c1ccc2ncc(-c3cccc4c5c([nH]c34)CC3CCC5N3)cc2c1 (stereo not drawn) [Example 32, 4-(quinolin-3-yl)-5,6,7,8,9,10-hexahydro-7,10-epiminocyclohepta[b]indole]	174	2.58	–
Clc1ccc(-c2ccc(-c3cccc4c5c([nH]c34)CC3CCC5N3)cn2)cn1 (stereo not drawn) [Example 28, 4-(6′-chloro-2,3′-bipyridin-5-yl)-5,6,7,8,9,10-hexahydro-7,10-epiminocyclohepta[b]indole]	118	5.5	–
CN1[C@@H]2CCC[C@H]1c1c([nH]c3c(OCc4ccccc4)cccc13)C2 (stereo in doubt) [Example 7, (−)-(7R*,11S*)-4-(benzyloxy)-12-methyl-6,7,8,9,10,11-hexahydro-5H-7,11-epiminocycloocta[b]indole]	120	5.41	–
Cc1ccc(-c2cccc3c4c([nH]c23)CC2CNC4C2)cn1 (stereo not drawn) [Example 37, 7-(6-methylpyridin-3-yl)-1,2,3,4,5,6-hexahydro-1,4-methanoazepino[4,3-b]indole]	131	7.33	–
Cc1ccc(/C=C/c2cc(F)cc3c4c([nH]c23)CC2CCC4N2C)cn1 (stereo not drawn) [Example 12, 2-fluoro-11-methyl-4-[(E)-2-(6-methylpyridin-3-yl)vinyl]-5,6,7,8,9,10-hexahydro-7,10-epiminocyclohepta[b]indole]	200	7.83	–
Cc1ccc(/C=C/c2cccc3c4c([nH]c23)CC2CCC4N2)cn1 (stereo not drawn) [Example 13, 4-[(E)-2-(6-methylpyridin-3-yl)vinyl]-5,6,7,8,9,10-hexahydro-7,10-epiminocyclohepta[b]indole]	164	4.62	–
Cc1ccc(-c2cccc3c4c([nH]c23)CC2CCC4N2C)cn1 (stereo not drawn) [Example 33, 11-methyl-4-(6-methylpyridin-3-yl)-5,6,7,8,9,10-hexahydro-7,10-epiminocyclohepta[b]indole]	158	5.08	–
CC(=O)N1C2CCC1c1c([nH]c3c(/C=C/c4ccc(C)nc4)cccc13)C2 (stereo not drawn) [Example 18, 11-acetyl-4-[(E)-2-(6-methylpyridin-3-yl)vinyl]-5,6,7,8,9,10-hexahydro-7,10-epiminocyclohepta[b]indole]	146	10.6	–
Cc1ccc(/C=C/c2ccc3[nH]c4c(c3c2)C2CCC(C4)N2C)cn1 (stereo not drawn) [Example 4, 11-methyl-2-[(E)-2-(6-methylpyridin-3-yl)vinyl]-5,6,7,8,9,10-hexahydro-7,10-epiminocyclohepta[b]indole]	239	3.62	–
CN1[C@H]2CC[C@@H]1c1c([nH]c3c(OCc4ccccc4)cccc13)C2 (stereo in doubt) [Example 6, (7S*,10R*)-4-(benzyloxy)-11-methyl-5,6,7,8,9,10-hexahydro-7,10-epiminocyclohepta[b]indole]	55	4.59	–
CN1[C@H]2CCC[C@@H]1c1c([nH]c3c(OCc4ccccc4)cccc13)C2 (stereo in doubt) [Example 8, (+)-(7S*,11R*)-4-(benzyloxy)-12-methyl-6,7,8,9,10,11-hexahydro-5H-7,11-epiminocycloocta[b]indole]	107	8.52	–
Cc1ccc(C#Cc2cccc3c4c([nH]c23)CC2CNC4C2)cn1 (stereo not drawn) [Example 38, 7-[(6-methylpyridin-3-yl)ethynyl]-1,2,3,4,5,6-hexahydro-1,4-methanoazepino[4,3-b]indole]	120	5.88	–
Cc1ccc(/C=C/c2cccc3c4c(n(C)c23)CC2CCC4N2)cn1 (stereo not drawn) [Example 24, 5-methyl-4-[(E)-2-(6-methylpyridin-3-yl)vinyl]-5,6,7,8,9,10-hexahydro-7,10-epiminocyclohepta[b]indole]	217	3.85	–
COC(=O)N1C2CCC1c1c([nH]c3c(-c4ccc5ncccc5c4)cccc13)C2 (stereo not drawn) [Example 22, methyl 4-quinolin-6-yl-5,6,7,8,9,10-hexahydro-7,10-epiminocyclohepta[b]indole-11-carboxylate]	204	6.44	–
Cc1ccc(C#Cc2cccc3c4c([nH]c23)C[C@H]2CC[C@@H]4N2C)cn1 (stereo in doubt) [Example 17, (−)-(7R*,10S*)-11-methyl-4-[(6-methylpyridin-3-yl)ethynyl]-5,6,7,8,9,10-hexahydro-7,10-epiminocyclohepta[b]indole]	182	3.87	–
CN1C2CCC1c1c([nH]c3c(-c4cnc5ccccc5c4)cccc13)C2 (stereo not drawn) [Example 34, 11-methyl-4-(quinolin-3-yl)-5,6,7,8,9,10-hexahydro-7,10-epiminocyclohept[b]indole]	189	1.34	–
COC(=O)N1C2CCC1c1c([nH]c3c(-c4cnc5ccccc5c4)cccc13)C2 (stereo not drawn) [Example 36, methyl 4-(quinolin-3-yl)-5,6,7,8,9,10-hexahydro-7,10-epiminocyclohepta[b]indole-11-carboxylate]	140	1.13	–
CN1C2CCC1c1c([nH]c3c(-c4ccc(Cl)cc4)cccc13)C2 (stereo not drawn) [Example 11, 4-(4-chlorophenyl)-11-methyl-5,6,7,8,9,10-hexahydro-7,10-epiminocyclohepta[b]indole]	74	8.03	–
Cc1ccc(CCc2cccc3c4c([nH]c23)CC2CCC4N2C)cn1 (stereo not drawn) [Example 2, 11-methyl-4-[2-(6-methylpyridin-3-yl)ethyl]-5,6,7,8,9,10-hexahydro-7,10-epiminocyclohepta[b]indole]	173	5.25	–
Cc1ccc(C#Cc2cccc3c4c([nH]c23)C[C@@H]2CC[C@H]4N2C)cn1 (stereo in doubt) [Example 16, (+)-(7S*,10R*)-11-methyl-4-[(6-methylpyridin-3-yl)ethynyl]-5,6,7,8,9,10-hexahydro-7,10-epiminocyclohepta[b]indole]	193	5.11	–
Clc1ccc(-c2cccc3c4c([nH]c23)CC2CCC4N2)cn1 (stereo not drawn) [Example 27, 4-(6-chloropyridin-3-yl)-5,6,7,8,9,10-hexahydro-7,10-epiminocyclohepta[b]indole]	104	10.2	–
COC(=O)N1C2CCC1c1c([nH]c3c(-c4ccc5ccncc5c4)cccc13)C2 (stereo not drawn) [Example 20, methyl 4-isoquinolin-7-yl-5,6,7,8,9,10-hexahydro-7,10-epiminocyclohepta[b]indole-11-carboxylate]	292	9.94	–
c1cncc(-c2cccc3c4c([nH]c23)CC2CCC4N2)c1 (stereo not drawn) [Example 35, 4-(pyridin-3-yl)-5,6,7,8,9,10-hexahydro-7,10-epiminocyclohepta[b]indole]	87.2	11	–

From patent publication US8778959B2, “AZA-bridged ring-fused indoles and indolines” (AbbVie Inc., priority 2009, dated 2014)
